Experimental data taken from ChEMBL document CHEMBL4316586, “A comprehensive review of salinomycin derivatives as potent anticancer and anti-CSCs agents” (Eur J Med Chem, 2019).

Columns and labels:
[1] = test system: JIMT-1; assay: Antiproliferative activity against human JIMT1 cells by MTT assay; assay type: functional, cell-based
[2] = test system: MCF7; assay: Antiproliferative activity against human MCF7 cells by MTT assay; assay type: functional, cell-based

IC50 [2] [nM] | Structure (SMILES) | IC50 [1] [nM]
610 | C=CC(=O)O[C@@H]1C=C[C@]2(O[C@H]([C@@H](CC)C(=O)[C@@H](C)[C@@H](O)[C@H](C)[C@@H]3O[C@@H]([C@@H](CC)C(=O)O)CC[C@@H]3C)[C@@H](C)C[C@H]2C)O[C@@]12CC[C@@](C)([C@H]1CC[C@](O)(CC)[C@H](C)O1)O2 | 390
190 | CC[C@@H](C(=O)[C@@H](C)[C@@H](O)[C@H](C)[C@@H]1O[C@@H]([C@@H](CC)C(=O)O)CC[C@@H]1C)[C@H]1O[C@]2(C=C[C@@H](OC(=O)C(C)C)[C@]3(CC[C@@](C)([C@H]4CC[C@](O)(CC)[C@H](C)O4)O3)O2)[C@H](C)C[C@@H]1C | 150
170 | CC[C@@H](C(=O)[C@@H](C)[C@@H](O)[C@H](C)[C@@H]1O[C@@H]([C@@H](CC)C(=O)O)CC[C@@H]1C)[C@H]1O[C@]2(C=C[C@@H](OC(=O)C(C)(C)C)[C@]3(CC[C@@](C)([C@H]4CC[C@](O)(CC)[C@H](C)O4)O3)O2)[C@H](C)C[C@@H]1C | 230
200 | CC[C@@H](C(=O)[C@@H](C)[C@@H](O)[C@H](C)[C@@H]1O[C@@H]([C@@H](CC)C(=O)O)CC[C@@H]1C)[C@H]1O[C@]2(C=C[C@@H](OC(=O)c3ccccc3)[C@]3(CC[C@@](C)([C@H]4CC[C@](O)(CC)[C@H](C)O4)O3)O2)[C@H](C)C[C@@H]1C | 360
130 | CC[C@@H](C(=O)[C@@H](C)[C@@H](O)[C@H](C)[C@@H]1O[C@@H]([C@@H](CC)C(=O)O)CC[C@@H]1C)[C@H]1O[C@]2(C=C[C@@H](OC(=O)c3ccco3)[C@]3(CC[C@@](C)([C@H]4CC[C@](O)(CC)[C@H](C)O4)O3)O2)[C@H](C)C[C@@H]1C | 160
240 | CC[C@@H](C(=O)[C@@H](C)[C@@H](O)[C@H](C)[C@@H]1O[C@@H]([C@@H](CC)C(=O)O)CC[C@@H]1C)[C@H]1O[C@]2(C=C[C@@H](OC(=O)C3CCCCC3)[C@]3(CC[C@@](C)([C@H]4CC[C@](O)(CC)[C@H](C)O4)O3)O2)[C@H](C)C[C@@H]1C | 300
230 | CC[C@@H](C(=O)[C@@H](C)[C@@H](O)[C@H](C)[C@@H]1O[C@@H]([C@@H](CC)C(=O)O)CC[C@@H]1C)[C@H]1O[C@]2(C=C[C@@H](OC(=O)c3cnco3)[C@]3(CC[C@@](C)([C@H]4CC[C@](O)(CC)[C@H](C)O4)O3)O2)[C@H](C)C[C@@H]1C | 240
240 | CC[C@@H](C(=O)[C@@H](C)[C@@H](O)[C@H](C)[C@@H]1O[C@@H]([C@@H](CC)C(=O)O)CC[C@@H]1C)[C@H]1O[C@]2(C=C[C@@H](OC(=O)Oc3ccccc3)[C@]3(CC[C@@](C)([C@H]4CC[C@](O)(CC)[C@H](C)O4)O3)O2)[C@H](C)C[C@@H]1C | 200

Structure (SMILES) | IC50 [2] [nM] | IC50 [1] [nM]
CCOC(=O)O[C@@H]1C=C[C@]2(O[C@H]([C@@H](CC)C(=O)[C@@H](C)[C@@H](O)[C@H](C)[C@@H]3O[C@@H]([C@@H](CC)C(=O)O)CC[C@@H]3C)[C@@H](C)C[C@H]2C)O[C@@]12CC[C@@](C)([C@H]1CC[C@](O)(CC)[C@H](C)O1)O2 | 130 | 90
CCNC(=O)O[C@@H]1C=C[C@]2(O[C@H]([C@@H](CC)C(=O)[C@@H](C)[C@@H](O)[C@H](C)[C@@H]3O[C@@H]([C@@H](CC)C(=O)O)CC[C@@H]3C)[C@@H](C)C[C@H]2C)O[C@@]12CC[C@@](C)([C@H]1CC[C@](O)(CC)[C@H](C)O1)O2 | 160 | 260
CC[C@@H](C(=O)[C@@H](C)[C@@H](O)[C@H](C)[C@@H]1O[C@@H]([C@@H](CC)C(=O)O)CC[C@@H]1C)[C@H]1O[C@]2(C=C[C@@H](OC(C)=O)[C@]3(CC[C@@](C)([C@H]4CC[C@](O)(CC)[C@H](C)O4)O3)O2)[C@H](C)C[C@@H]1C | 110 | 110
